# Patent EP4759817A1, “HETEROARYL COMPOUND, PREPARATION METHOD THEREFOR, AND USE THEREOF IN MEDICINE” (Jiangsu Hengrui Pharmaceuticals Co., Ltd., priority 2023, dated 2025)
# pIC50: −log10 of the molar value.
# How the values were obtained:
# [1] = Pharmacokinetic evaluation in Nu/Nu mice (plasma, LC-MS/MS); type: in vivo; conditions: mouse, in vivo, po, i.g., 100 mg/kg
# Experimental: Using Nu/Nu mice as the test animals, the plasma concentrations of the example compounds at different time points were determined by LC-MS/MS following oral gavage (i.g.) administration. The pharmacokinetic behaviours of the compounds of the present disclosure in Nu/Nu mice were investigated, and their pharmacokinetic profiles were evaluated.
# Compound 1-p1, compound 2-p1, compound 8-p1 and comparative example 1.
# A total of 36 female Nu/Nu mice (supplied by Vital River Laboratory Animal Technology Co., Ltd.) were randomly divided into 4 groups.
# An appropriate amount of each test compound was weighed and dissolved in 5% DMSO+20% PEG400+70% (10% TPGS)+5% (1% HMPC K100LV) to prepare a 10 mg/mL colourless clear solution.
# The administration dosage was 100 mg/kg, and the administration volume was 10 mL/kg.
# Mice were not fasted. After oral gavage administration, blood (0.1 mL) was collected from the orbital cavity before administration, and at 0.25 h, 0.5 h, 1.0 h, 2.0 h, 4.0 h, 6.0 h, 8.0 h, 11.0 h and 24.0 h after administration. The blood was placed into EDTA-K2 anticoagulant tubes and centrifuged at 10000 rpm for 1 minute (4°C) to separate plasma. The plasma was separated within 1 h and stored at -20°C until analysis. The entire process from blood collection to centrifugation was performed in ice bath conditions.
# Determination of test compound contents in plasma of Nu/Nu mice after administration of different compounds: To 20 µL of plasma samples from each time point in Nu/Nu mice, 200 µL of acetonitrile and 25 µL of verapamil (100 ng/mL) were added. The mixture was vortex-mixed for 5 minutes and centrifuged at 4000 rpm for 15 minutes. 90 µL of water and 90 µL of the supernatant were vortex-mixed for 5 minutes. 2 µL (for compound 1-p1), 2 µL (for compound 2-p1), 1 µL (for compound 8-p1), or 0.5 µL (for comparative example 1) of the supernatant was taken for LC-MS/MS analysis receptively.
# HCT116 MTAP-/- cells = assay: HCT116 MTAP-/- cell proliferation assay (CellTiter-Glo, 10 days); type: cell-based; conditions: Homo sapiens, HCT-116, 240 h, growth inhibition, CTG assay Day 10
# Source text: • I. Experimental materials and instruments • 1. HCT116 cell line (Nanjing Kebai Biotechnology Co., Ltd., CBP60028) • 2. HCT116 MTAP-/- cell line (Nanjing Kebai Biotechnology Co., Ltd., CBP75002) • 3. DMSO (Sigma, D2650) • 4. McCoy's 5A medium (Gibco, 16600-082) • 5. Foetal bovine serum (FBS) (Gibco, 10091148) • 6. Phosphate buffered saline (DPBS) pH 7.4 (Gibco, 14190-144) • 7. Pen strep (PS) (Gibco, 15140-122) • 8. 0.25% Typsin-EDTA (1×) (Gibco, 25200-072) • 9. CellTiter-Glo® Luminescent Cell Viability Assay (Promega, G7572) • 10. 96-well round-bottom plate (JET, TCP002096) • 11. 96-well black clear bottom plate (Hangzhou Xinyou Biotechnology Co., Ltd., 060096) • 12. 1.2 mL 96-well deep well plate, clear, sterile, square-well, V-bottom (Titan, 02089063) • 13. 15-mL centrifuge tube (Titan) • 14. Biosafety cabinet (Thermo, 1300AII) • 15. Cell counter (Countstar, IC1000) • 16. Incubator (Thermo, I160) • 17. Centrifuge (Beckman coulter, Allegra X-12 centrifuge) • 18. PHERAstar FS microplate reader (BMG Labtech) • II. Experimental procedure • 1. Cell plating (Day 0) • a) The cell morphology was observed under a microscope to ensure confluence reached approximately 90%. • b) The cell supernatant was aspirated, the cells were washed once with PBS, and then the PBS was removed; and the cells were digested by adding an appropriate amount of trypsin, and left to stand at 37°C for 3 minutes. • c) The digestion was terminated by adding an equal volume of McCoy's 5A medium containing 10% FBS, and the cell suspension was collected and centrifuged at 300 g for 3 minutes; and the cells were resuspended in an appropriate amount of fresh medium. • d) The resuspended cell suspension was taken for counting. • e) The cell suspension was diluted to 1e4/mL using McCoy's 5A medium containing 10% FBS, and seeded at 50 µL per well, corresponding to 500 cells/well for HCT116 and 500 cells/well for HCT116 MTAP-/-. • f) The cell plate was placed in a 37°C, 5% carbon dioxide incubator and incubated overnight. • 2. Compound treatment (Day 1) • a) Each compound was serially diluted in DMSO to generate a 9-point concentration gradient (starting concentration: 10000 µM, 3-fold dilution; the highest concentration may be adjusted individually based on IC50 of different compounds); for example, in a 96-well round-bottom compound-dilution plate, 5 µL of the compound was sequentially diluted into 10 µL of DMSO. • b) Each concentration point of every compound was then diluted 250-fold into the corresponding volume of McCoy's 5A medium. • c) To each cell plate, 50 µL of the diluted compound solution as described above was added sequentially to the cell supernatant (50 µL/well). • d) The compound-treated cell plate was placed in a 37°C, 5% carbon dioxide incubator and incubated. • 3. Re-digestion, re-plating and compound treatment (Day 5) • a) After 5 days of compound treatment, the compound-containing medium was aspirated, and the cells were rinsed once with PBS (100 µL/well); and the PBS was removed immediately. • b) The cells were digested by adding 25 µL of trypsin and incubated at 37°C for 3 minutes, and then the digestion was terminated by adding 175 µL/well of McCoy's 5A medium containing 10% FBS. • c) The cells were mixed thoroughly using a pipette, and re-plated at 1 : 20; and specifically, 10 µL of the cell suspension was aspirated to a new 96-well plate (pre-filled with 40 µL of McCoy's 5A medium containing 10% FBS. • d) Compounds were prepared and added according to steps a) to c) in Section 2, with 50 µL added per well. • e) The compound-treated cell plate was placed in a 37°C, 5% carbon dioxide incubator and incubated. • 4. […]
# [2] = biological target: T1, Recombinant human PRMT5: MEP50 protein (Homo sapiens, UniProt O14744); assay: Inhibitory activity against human PRMT5 enzymatic activity (HTRF quantification of SAH, +MTA); type: biochemical; conditions: +1 µM MTA; histone H4 peptide substrate (1-21), SAM; 37°C 120 min
# T1 construct: purchased active motif 31521
# Experimental: • 1. Recombinant human PRMT5: MEP50 protein (active motif, 31521) • 2. EPIgeneous Methyltransferase kit (cisbio, 62SAHPEH) • 3. 96-well plate (Sangon Biotech, F610960-0010) • 4. 384-well white plate (Perkin Elmer, 6007290) • 5. 1 M Tris-HCl [pH 8.5] (Sangon Biotech, B548141) • 6. Histone H4 peptide substrates (1-21) (BPS bioscience, 52014) • 7. 5'-deoxy-5'-(methylthio)adenosine (Aladdin, D168979-25 mg) • 8. Tween-20 (Sangon Biotech, A100777-0500) • 9. DMSO (Sigma, D2650) • 10. Incubator (Shanghai Boxun Medical Biological Instrument Corp.) • 11. PHERAstar FS microplate reader (BMG Labtech)
# PRMT5 can induce the transfer of a methyl group from S-adenosylmethionine (SAM) to a histone H4 peptide substrate (1-21), generating S-adenosylhomocysteine (SAH). In this experiment, the amount of SAH produced in the reaction is quantified using a Homogeneous Time-Resolved Fluorescence (HTRF) method to evaluate the inhibitory activity of compounds against PRMT5 enzymatic activity.
# The sample diluent containing (or not containing) 1 µM 5 '-deoxy-5' - (methylthiyl) adenosine (MTA) was prepared using the EPIgeneous Diluent Buffer from the EPIgeneous Methyltransferase kit. With reference to the instructions, SAM and SAH standards were serially diluted and dispensed at 10 µL per well (in duplicate for each concentration). 2 µL of EPIgeneous Detection Buffer 1 was added to each well, and the plate was centrifuged, shaken to mix thoroughly, and placed at room temperature for 10 min. The SAH d2 Reagent was diluted 32-fold with EPIgeneous Detection Buffer 2, and 4 µL of the diluted SAH-d2 solution was added to each well. The plate was centrifuged and shaken for 2 min to mix thoroughly. The SAH Tb Cryptate Antibody was diluted 50-fold in EPIgeneous Detection Buffer 2. 4 µL of the diluted Tb Cryptate Antibody solution was added to each well, and the plate was centrifuged, shaken for 2 min to mix thoroughly, and left to stand at room temperature for 60 min, followed by reading on a PHERAstar FS microplate reader to obtain the 665/620 ratio. Plotting SAH concentration against the ratio to generate an x-y curve yields a corresponding calculation formula.
# Reaction buffer (1×): 50 mM Tris-HCl [pH 8.5], 1 mM DTT, 0.005% Tween-20.
# Compound preparation: a 20 mM solution of test compound in 100% DMSO was diluted in 100% DMSO to 1 mM as the highest concentration, and the solution at this concentration was then subjected to a 10-point, 3-fold serial dilution in 100% DMSO in a 96-well plate. Wells containing 100% DMSO served as the blank control. The above-described serially diluted compounds and the 100% DMSO were diluted 20-fold with the reaction buffer to prepare 5× compound solutions, which were mixed thoroughly for use.
# The PRMT5:MEP50 was diluted in the reaction buffer to a final concentration of 12.5 nM. Then, 4 µL of the 12.5 nM PRMT5:MEP50 solution was added to each well of a 384-well plate. Wells containing 4 µL of the reaction buffer served as the negative control wells. 2 µL of the 5× compound solution was added to each well. For the negative control wells (no enzyme, no compound) and the positive control wells (no compound), 2 µL of 5% DMSO was added. The plate was sealed with a membrane, centrifuged, shaken for 2 min to mix thoroughly, and placed at room temperature for 20 min.
# Preparation of substrate mixture solution: The substrate mixture solution containing 1.5 µM histone H4 peptide substrate (1-21) and 2.5 µM SAM, or 1.5 µM histone H4 peptide substrate (1-21), 2.5 µM SAM and 2.5 µM MTA was prepared in the reaction buffer.
# The reaction was initiated by adding 4 µL of the substrate mixture solution (-/+ MTA) to each well. The plate was sealed with a membrane, centrifuged, shaken for 2 min to mix thoroughly, and incubated at 37°C for 120 min in a constant temperature incubator.
# Detection: The detection was performed by using the EPIgeneous Methyltransferase kit. […]
# T1 sequence (O14744 whole entry): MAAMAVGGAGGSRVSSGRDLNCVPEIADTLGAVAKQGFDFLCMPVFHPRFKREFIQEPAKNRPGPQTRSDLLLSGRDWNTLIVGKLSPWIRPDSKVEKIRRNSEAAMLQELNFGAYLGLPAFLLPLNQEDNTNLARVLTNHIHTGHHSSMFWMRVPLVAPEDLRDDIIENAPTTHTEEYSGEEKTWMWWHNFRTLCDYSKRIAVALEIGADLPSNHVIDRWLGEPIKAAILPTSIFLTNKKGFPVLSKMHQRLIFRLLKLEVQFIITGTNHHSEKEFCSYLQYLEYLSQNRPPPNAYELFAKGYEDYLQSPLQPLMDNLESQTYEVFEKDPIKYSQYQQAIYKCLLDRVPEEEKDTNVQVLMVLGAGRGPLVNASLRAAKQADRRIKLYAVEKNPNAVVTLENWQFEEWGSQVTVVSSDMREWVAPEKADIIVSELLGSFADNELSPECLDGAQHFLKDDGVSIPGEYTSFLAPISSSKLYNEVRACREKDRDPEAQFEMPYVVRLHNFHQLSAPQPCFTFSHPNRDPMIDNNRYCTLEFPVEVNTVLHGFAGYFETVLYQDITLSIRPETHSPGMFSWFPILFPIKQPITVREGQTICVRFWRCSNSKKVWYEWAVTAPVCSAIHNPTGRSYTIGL
# T1 sequence (Q9BQA1 whole entry partner): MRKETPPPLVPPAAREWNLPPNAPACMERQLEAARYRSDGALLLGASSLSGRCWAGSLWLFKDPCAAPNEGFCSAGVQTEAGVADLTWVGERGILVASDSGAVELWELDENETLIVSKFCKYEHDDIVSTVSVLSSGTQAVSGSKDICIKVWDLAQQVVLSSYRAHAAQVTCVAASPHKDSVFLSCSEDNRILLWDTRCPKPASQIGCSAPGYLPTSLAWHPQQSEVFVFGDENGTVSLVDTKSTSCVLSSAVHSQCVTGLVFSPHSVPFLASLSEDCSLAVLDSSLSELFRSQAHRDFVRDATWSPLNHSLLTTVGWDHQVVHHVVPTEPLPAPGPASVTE
SMILES,IC50 [2] [nM],further results
"Cn1ncc(-c2ccc3c(=O)[nH]nc(CN)c3c2)c1-c1c(F)cc2c(c1C#N)OCCO2 (atropisomer, axis not shown) [Comparative example 1, reference compound]",–,Vd/F ([1]; read-out: Apparent volume of distribution V/F): 132 L/kg; AUC(0-t) ([1]; read-out: Area under the curve AUC0-t): 1720 ng·h/mL; CL/F ([1]; read-out: Clearance CL/F): 960 mL/min/kg; half-life ([1]; read-out: Half life T1/2 (converted)): 1.6 h; Cmax ([1]; read-out: Plasma concentration Cmax): 657 ng/mL; pIC50 (HCT116 MTAP-/- cells): 7.15
"[2H]C([2H])([2H])n1ncc(-c2ccc3c(=O)[nH]nc(CN)c3c2)c1-c1c(F)c(Cl)c2c(c1C#N)O[C@H]1CC[C@H]1O2 (atropisomer, axis not shown; (M)) [Compound 11-p3, (M)-(2aS,8aR)-5-(4-(4-(aminomethyl)-1-oxo-1,2-dihydrophthalazin-6-yl)-1-(methyl-d3)-1H-pyrazol-5-yl)-7-chloro-6-fluoro-1,2,2a,8a-tetrahydrobenzo[b]cyclobuta[e][1,4]dioxine-4-carbonitrile]",5.4,pIC50 (HCT116 MTAP-/- cells): 8.34
"Cn1ncc(-c2ccc3c(=O)[nH]nc(CN)c3c2)c1-c1c(F)cc2c(c1C#N)O[C@@H]1CC[C@@H]1O2 (atropisomer, axis not shown; (P)) [Compound 1-p4, (P)-(2aR,8aS)-5-(4-(4-(aminomethyl)-1-oxo-1,2-dihydrophthalazin-6-yl)-1-methyl-1H-pyrazol-5-yl)-6-fluoro-1,2,2a,8a-tetrahydrobenzo[b]cyclobuta[e][1,4]dioxine-4-carbonitrile]",5.48,–
"[2H]C([2H])([2H])n1ncc(-c2ccc3c(=O)[nH]nc(CN)c3c2)c1-c1c(F)cc2c(c1C#N)O[C@H]1CC[C@H]1O2 (single isomer, unassigned) [Compound 2-p3]",5.31,–
"[2H]C([2H])([2H])n1ncc(-c2ccc3c(=O)[nH]nc(CN)c3c2)c1-c1c(F)cc2c(c1C#N)N1CCC[C@H]1CO2 (single isomer, unassigned) [Compound 8-p2]",3.86,–

# Now from value to compound, other results behind:
IC50 [2] [nM],SMILES,further results
5.87,"[2H]C([2H])([2H])n1ncc(-c2ccc3c(=O)[nH]nc(CN)c3c2)c1-c1c(F)cc2c(c1C#N)O[C@@H]1CC[C@@H]1O2 (single isomer, unassigned) [Compound 2-p4]",–
7.67,"[2H]C([2H])([2H])n1ncc(-c2ccc3c(=O)[nH]nc(CN)c3c2)c1-c1c(F)cc2c(c1C#N)N1CCC[C@@H]1CO2 (single isomer, unassigned) [Compound 5-p1]",–
4.91,"[2H]C([2H])([2H])n1ncc(-c2ccc3c(=O)[nH]nc(CN)c3c2)c1-c1c(F)cc2c(c1C#N)N1CCC[C@@H]1CO2 (single isomer, unassigned) [Compound 5-p2]",–
6.39,"[2H]C([2H])([2H])n1ncc(-c2ccc3c(=O)[nH]nc(CN)c3c2)c1-c1c(F)cc2c(c1C#N)OCC21CC1 [Compound 12, 6-(4-(4-(aminomethyl)-1-oxo-1,2-dihydrophthalazin-6-yl)-1-(methyl-d3)-1H-pyrazol-5-yl)-5-fluoro-2H-spiro[benzofuran-3,1'-cyclopropane]-7-carbonitrile]",–
